Reference: the supplement of paper PMC11451515

Tested on: NOMO1
Test: cell viability relative to DMSO control; higher = less cytotoxic
Conditions: 48 h
How it was run: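 Viability, reported as a per-plate percentage of DMSO wells with cell-free wells as background, came from CellTiter-Glo One luminescence. Reading took place after 48 h at 37°C. Before that, NOMO1 or SEM (500 cells/well) or P12-Ichikawa (1000 cells/well) leukemia cells, adapted for at least four passages in each medium, were seeded in 1536-well plates (5 μl) and pin-dosed with library compounds in DMSO, 47 μM to 0.79 nM over 11 threefold points.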

[1] = RPMI 5 mM glucose + 10% FBS, 0.000781 µM
[2] = RPMI 5 mM glucose + 10% FBS, 0.00234 µM
[3] = RPMI 5 mM glucose + 10% FBS, 0.00702 µM
[4] = RPMI 5 mM glucose + 10% FBS, 0.0211 µM
[5] = RPMI 5 mM glucose + 10% FBS, 0.0632 µM
[6] = RPMI 5 mM glucose + 10% FBS, 0.19 µM
[7] = RPMI 5 mM glucose + 10% FBS, 0.569 µM
[8] = RPMI 5 mM glucose + 10% FBS, 1.71 µM
[9] = RPMI 5 mM glucose + 10% FBS, 5.12 µM
[10] = RPMI 5 mM glucose + 10% FBS, 15.4 µM
[11] = RPMI 5 mM glucose + 10% FBS, 46.1 µM
[12] = RPMI 5 mM glucose + 10% dialyzed FBS, 0.000781 µM
[13] = RPMI 5 mM glucose + 10% dialyzed FBS, 0.00234 µM
[14] = RPMI 5 mM glucose + 10% dialyzed FBS, 0.00702 µM
[15] = RPMI 5 mM glucose + 10% dialyzed FBS, 0.0211 µM
[16] = RPMI 5 mM glucose + 10% dialyzed FBS, 0.0632 µM
[17] = RPMI 5 mM glucose + 10% dialyzed FBS, 0.19 µM
[18] = RPMI 5 mM glucose + 10% dialyzed FBS, 0.569 µM
[19] = RPMI 5 mM glucose + 10% dialyzed FBS, 1.71 µM
[20] = RPMI 5 mM glucose + 10% dialyzed FBS, 5.12 µM
[21] = RPMI 5 mM glucose + 10% dialyzed FBS, 15.4 µM
[22] = RPMI 5 mM glucose + 10% dialyzed FBS, 46.1 µM
[23] = HPLM + 10% dialyzed FBS, 0.000781 µM
[24] = HPLM + 10% dialyzed FBS, 0.00234 µM
[25] = HPLM + 10% dialyzed FBS, 0.00702 µM
[26] = HPLM + 10% dialyzed FBS, 0.0211 µM
[27] = HPLM + 10% dialyzed FBS, 0.0632 µM
[28] = HPLM + 10% dialyzed FBS, 0.19 µM
[29] = HPLM + 10% dialyzed FBS, 0.569 µM
[30] = HPLM + 10% dialyzed FBS, 1.71 µM
[31] = HPLM + 10% dialyzed FBS, 5.12 µM
[32] = HPLM + 10% dialyzed FBS, 15.4 µM
[33] = HPLM + 10% dialyzed FBS, 46.1 µM

`CC1=CC=CC=C1CN2C(=O)C/3=C(/CCN(CC4=CC=CC=C4)C3)N\5CC\N=C25` gave a cell viability [1] of 109%, a cell viability [2] of 118% and a cell viability [3] of 121%. For the same compound, the cell viability [4] was 124%, the cell viability [5] was 134% and the cell viability [6] was 113%. The cell viability [7] was 116%, the cell viability [8] was 119% and the cell viability [9] was 59%. For the same compound, the cell viability [10] was 20.1%, the cell viability [11] was 21.4% and the cell viability [12] was 132%. It also gave a cell viability [13] of 118%, a cell viability [14] of 122% and a cell viability [15] of 126%. For the same compound, the cell viability [16] was 120%, the cell viability [17] was 122% and the cell viability [18] was 133%. For the same compound, the cell viability [19] was 86.6%, the cell viability [20] was 69.9% and the cell viability [21] was 25.9%. It also gave a cell viability [22] of 23.6%.
For `CC(=O)OCC(=O)[C@@]12\N=C(C)/O[C@@H]1C[C@H]3[C@@H]4CCC/5=C/C(=O)/C=C\[C@]5(C)[C@H]4[C@@H](O)C[C@]23C`, the cell viability [23] was 107%, the cell viability [24] was 102% and the cell viability [25] was 109%. For the same compound, the cell viability [26] was 130%, the cell viability [27] was 133% and the cell viability [28] was 137%. For the same compound, the cell viability [29] was 122%, the cell viability [30] was 128% and the cell viability [31] was 105%. For the same compound, the cell viability [32] was 121%, the cell viability [33] was 86.6% and the cell viability [1] was 94.3%. For the same compound, the cell viability [2] was 106%, the cell viability [3] was 94.6% and the cell viability [4] was 105%. It also gave a cell viability [5] of 108%, a cell viability [6] of 106% and a cell viability [7] of 107%. The cell viability [8] was 113%, the cell viability [9] was 107% and the cell viability [10] was 98%. The cell viability [11] was 99.6%, the cell viability [12] was 94.1% and the cell viability [13] was 96.1%. For the same compound, the cell viability [14] was 102%, the cell viability [15] was 99.2% and the cell viability [16] was 105%. For the same compound, the cell viability [17] was 117%, the cell viability [18] was 109% and the cell viability [19] was 113%. It also gave a cell viability [20] of 109%, a cell viability [21] of 104% and a cell viability [22] of 91.8%.
`N[S+](=O)([O-])c1cc(Cl)c(Cl)c([S+](N)(=O)[O-])c1` gave a cell viability [23] of 112%, a cell viability [24] of 92.2% and a cell viability [25] of 107%. It also gave a cell viability [26] of 105%, a cell viability [27] of 106% and a cell viability [28] of 104%. For the same compound, the cell viability [29] was 116%, the cell viability [30] was 98.3% and the cell viability [31] was 86.5%. For the same compound, the cell viability [32] was 82.6%, the cell viability [33] was 94.3% and the cell viability [1] was 112%. It also gave a cell viability [2] of 95.7%, a cell viability [3] of 96% and a cell viability [4] of 101%. The cell viability [5] was 104%, the cell viability [6] was 93.7% and the cell viability [7] was 99.3%. For the same compound, the cell viability [8] was 95.3%, the cell viability [9] was 100% and the cell viability [10] was 89.3%. It also gave a cell viability [11] of 87.5%, a cell viability [12] of 97.9% and a cell viability [13] of 99.1%. For the same compound, the cell viability [14] was 110%, the cell viability [15] was 97.5% and the cell viability [16] was 108%. For the same compound, the cell viability [17] was 95.7%, the cell viability [18] was 98.5% and the cell viability [19] was 92.6%. It also gave a cell viability [20] of 91.7%, a cell viability [21] of 100% and a cell viability [22] of 85.8%.
`Cc1c(Cn2c(C)nc3c(C(=O)O)cc(N4CCOCC4)cc32)cccc1C(F)(F)F` showed a cell viability [23] of 98.3%, a cell viability [24] of 114% and a cell viability [25] of 121%. For the same compound, the cell viability [26] was 125%, the cell viability [27] was 115% and the cell viability [28] was 120%. For the same compound, the cell viability [29] was 106%, the cell viability [30] was 121% and the cell viability [31] was 105%. It also gave a cell viability [32] of 95.8%, a cell viability [33] of 16.3% and a cell viability [1] of 87.2%. It also gave a cell viability [2] of 95.4%, a cell viability [3] of 101% and a cell viability [4] of 108%. It also gave a cell viability [5] of 103%, a cell viability [6] of 97.1% and a cell viability [7] of 108%. For the same compound, the cell viability [8] was 116%, the cell viability [9] was 112% and the cell viability [10] was 101%. The cell viability [11] was 75%, the cell viability [12] was 89.2% and the cell viability [13] was 112%. For the same compound, the cell viability [14] was 105%, the cell viability [15] was 117% and the cell viability [16] was 98.9%. It also gave a cell viability [17] of 101%, a cell viability [18] of 111% and a cell viability [19] of 112%. The cell viability [20] was 96.6%, the cell viability [21] was 102% and the cell viability [22] was 85.8%.
Work on `NC(CO)(CO)CCc1ccc(Sc2cccc(OCc3ccccc3)c2)cc1Cl` yielded a cell viability [23] of 108%, a cell viability [24] of 107% and a cell viability [25] of 118%. For the same compound, the cell viability [26] was 118%, the cell viability [27] was 124% and the cell viability [28] was 129%. The cell viability [29] was 111%, the cell viability [30] was 121% and the cell viability [31] was 63.1%. The cell viability [32] was 38.6%, the cell viability [33] was 8.35% and the cell viability [1] was 104%. For the same compound, the cell viability [2] was 103%, the cell viability [3] was 116% and the cell viability [4] was 122%. It also gave a cell viability [5] of 107%, a cell viability [6] of 107% and a cell viability [7] of 117%. For the same compound, the cell viability [8] was 115%, the cell viability [9] was 120% and the cell viability [10] was 40.1%. For the same compound, the cell viability [11] was 5.44%, the cell viability [12] was 93.5% and the cell viability [13] was 103%. For the same compound, the cell viability [14] was 99.1%, the cell viability [15] was 107% and the cell viability [16] was 114%. The cell viability [17] was 109%, the cell viability [18] was 105% and the cell viability [19] was 115%. The cell viability [20] was 113%, the cell viability [21] was 104% and the cell viability [22] was 5.71%.
`OC[C@H](Cc1ccccc1)Nc1nc(Oc2ccc3c(c2)CCC3)nc2c1ncn2Cc1ccc(-c2ccccc2)cc1` was tested, and the cell viability [23] was 95.3%, the cell viability [24] was 100% and the cell viability [25] was 83.5%. For the same compound, the cell viability [26] was 123%, the cell viability [27] was 86.9% and the cell viability [28] was 98.5%. It also gave a cell viability [29] of 108%, a cell viability [30] of 88.6% and a cell viability [31] of 99.5%. It also gave a cell viability [32] of 87.2%, a cell viability [33] of 96.7% and a cell viability [1] of 79.7%. The cell viability [2] was 83.2%, the cell viability [3] was 84.8% and the cell viability [4] was 96.4%. The cell viability [5] was 102%, the cell viability [6] was 89.7% and the cell viability [7] was 90.3%. The cell viability [8] was 92.2%, the cell viability [9] was 98.8% and the cell viability [10] was 90.5%. For the same compound, the cell viability [11] was 90.2%, the cell viability [12] was 90.7% and the cell viability [13] was 84%. It also gave a cell viability [14] of 102%, a cell viability [15] of 95.6% and a cell viability [16] of 98.5%. The cell viability [17] was 101%, the cell viability [18] was 116% and the cell viability [19] was 96.7%. The cell viability [20] was 100%, the cell viability [21] was 114% and the cell viability [22] was 96.3%.
Work on `CCc1c(C(=O)C(N)=O)c2c(OCC(=O)O)cccc2n1Cc1ccccc1` yielded a cell viability [23] of 113%, a cell viability [24] of 105% and a cell viability [25] of 94.9%. The cell viability [26] was 103%, the cell viability [27] was 122% and the cell viability [28] was 103%. The cell viability [29] was 107%, the cell viability [30] was 100% and the cell viability [31] was 89.4%. For the same compound, the cell viability [32] was 90.8%, the cell viability [33] was 96.5% and the cell viability [1] was 92%. For the same compound, the cell viability [2] was 105%, the cell viability [3] was 91.1% and the cell viability [4] was 103%. It also gave a cell viability [5] of 104%, a cell viability [6] of 93.1% and a cell viability [7] of 89.2%. The cell viability [8] was 103%, the cell viability [9] was 98.2% and the cell viability [10] was 100%. For the same compound, the cell viability [11] was 92.3%, the cell viability [12] was 95.3% and the cell viability [13] was 103%. The cell viability [14] was 105%, the cell viability [15] was 101% and the cell viability [16] was 105%. It also gave a cell viability [17] of 86.9%, a cell viability [18] of 103% and a cell viability [19] of 96.6%. The cell viability [20] was 96.3%, the cell viability [21] was 91.6% and the cell viability [22] was 92%.
